Reference: ChEMBL document CHEMBL5131487, “Synthesis and biological evaluation of tetrahydroisoquinoline-derived antibacterial compounds” (Bioorg Med Chem, 2022)
Activity calls are given as the source filed them. The calls are words filed in the database; no cut-off is given here.

Assays:
3T3-L1 [1] = test: Cytotoxicity against mouse 3T3-L1 cells assessed as reduction in cell viability at 12.5 ug/ml measured after 24 hrs by MTT assay; assay type: toxicity, cell-based; conditions: 3t3-l1, 24 h, dose 12.5 µg/ml
Escherichia coli = test: Antibacterial activity against Escherichia coli MG1655 assessed as inhibition of bacterial growth incubated for 20 hrs by CLSI broth microdilution method; assay type: functional
Staphylococcus aureus [2] = test: Antibacterial activity against Staphylococcus aureus ATCC 25923 assessed as inhibition of bacterial growth incubated for 20 hrs by CLSI broth microdilution method; assay type: functional
Bacillus subtilis [3] = test: Antibacterial activity against Bacillus subtilis 168 assessed as inhibition of bacterial growth incubated for 20 hrs by CLSI broth microdilution method; assay type: functional
Vero = test: (§1) Cytotoxicity against African green monkey Vero cells assessed as inhibition of cell growth at 50 ug/ml; assay type: toxicity, cell-based; conditions: chlorocebus sabaeus, vero; dose 50 µg/ml
Bacillus subtilis [4] = test: Bactericidal activity against Bacillus subtilis 168 at 4 ug/ml incubated for 20 hrs in CAMHB followed by culturing onto CAMHA for 48 hrs by colony counting analysis; assay type: functional, organism-based; conditions: dose 4.0 µg/ml, time 68.0 hrs
[5] = Cytotoxicity against mouse 3T3-L1 cells assessed as cell viability at 25 ug/ml measured after 24 to 72 hrs by MTT assay relative to control; assay type: toxicity, cell-based; conditions: at 25 µg/mL, time 24-72 hrs, read-out: Activity
Staphylococcus aureus [6] = test: Bactericidal activity against Staphylococcus aureus ATCC 25923 at 4 ug/ml incubated for 20 hrs in CAMHB followed by culturing onto CAMHA for 48 hrs by colony counting analysis; assay type: functional, organism-based; conditions: dose 4.0 µg/ml, time 68.0 hrs
Streptococcus pneumoniae = test: Antibacterial activity against Streptococcus pneumoniae assessed as inhibition of bacterial growth incubated for 20 hrs by CLSI broth microdilution method; assay type: functional
[7] = tested on: Mycobacterium tuberculosis; test: Antibacterial activity against Mycobacterium tuberculosis H37Rv assessed as inhibition of bacterial growth at 20 uM; assay type: functional
[8] = as §1; assay type: toxicity, cell-based; conditions: chlorocebus sabaeus, Vero cells, at 50 µg/mL
Acinetobacter baylyi = test: Antibacterial activity against Acinetobacter baylyi assessed as inhibition of bacterial growth incubated for 20 hrs by CLSI broth microdilution method; assay type: functional
3T3-L1 [9] = test: Cytotoxicity against mouse 3T3-L1 cells assessed as reduction in cell viability at 25 ug/ml measured after 24 to 72 hrs by MTT assay; assay type: toxicity, cell-based; conditions: time 24-72 hrs, dose 25 µg/ml
Acinetobacter baumannii = test: Antibacterial activity against Acinetobacter baumannii assessed as inhibition of bacterial growth incubated for 20 hrs by CLSI broth microdilution method; assay type: functional
Bacillus subtilis [10] = test: Induction of phenotypic changes in Bacillus subtilis 168 assessed as bacterial population with bulging phenotype at 4XMIC measured after 1 hr by phase contrast microscopic analysis; assay type: functional
Bacillus subtilis [11] = test: Induction of phenotypic changes in Bacillus subtilis 168 assessed as bacterial population with localized swelling at 4XMIC measured after 1 hr by phase contrast microscopic analysis; assay type: functional
[12] = tested on: Mycobacterium tuberculosis; test: Antibacterial activity against Mycobacterium tuberculosis H37Rv assessed as inhibition of bacterial growth; assay type: functional
Staphylococcus aureus [13] = test: Antibacterial activity against Staphylococcus aureus ATCC 25923 assessed as inhibition of bacterial growth measured after repeated 30 day serial passage treatment by broth microdilution method; assay type: functional, organism-based
Bacillus subtilis [14] = test: Induction of phenotypic changes in Bacillus subtilis 168 assessed as disruption of peptidoglycan synthesis by measuring inconsistency in NADA stain distribution throughout the cell at 4XMIC measured after 60 mins by NADA staining based fluorescent microscopy; assay type: functional
[15] = Induction of phenotypic changes in Bacillus subtilis 168 assessed as abundance of ghost cells at 4XMIC measured after 1 hr by phase contrast microscopic analysis; assay type: functional
Enterococcus faecium = test: Antibacterial activity against Enterococcus faecium assessed as inhibition of bacterial growth incubated for 20 hrs by CLSI broth microdilution method; assay type: functional

SMILES | MIC95 (Escherichia coli) [µg/mL] | MIC95 (Staphylococcus aureus [2]) [µg/mL] | MIC95 (Bacillus subtilis [3]) [µg/mL] | also measured
COc1cccc(CC2c3cc(OC)c(OC)cc3CC[N+]2(Cc2cn(-c3ccc(C(C)(C)C)cc3)nn2)Cc2cn(-c3ccc(C(C)(C)C)cc3)nn2)c1 (centres undefined) | > 128 | 4 | – | Activity (3T3-L1 [1]): Toxic
COc1cc2c(cc1OC)C[N+](Cc1cn(-c3ccc(Cl)cc3)nn1)(Cc1cn(-c3ccc(Cl)cc3)nn1)CC2 | > 128 | 32 | 32 | –
COc1cc2c(cc1OC)C[N+](Cc1cn(-c3ccc(OCc4ccccc4)c(F)c3)nn1)(Cc1cn(-c3ccc(OCc4ccccc4)c(F)c3)nn1)CC2 | > 128 | 4 | 4 | Activity (Vero): Non-Toxic; Activity (Bacillus subtilis [4]): Active; viability at 25 ug/ml [5]: > 85%; Activity (Staphylococcus aureus [6]): Active
COc1cc2c(cc1OC)C[N+](Cc1cn(-c3ccc(C(C)(C)C)cc3)nn1)(Cc1cn(-c3ccc(C(C)(C)C)cc3)nn1)CC2 | > 128 | 4 | 4 | MIC95 (Streptococcus pneumoniae): 8 µg/mL; inhibition at 20 µM [7]: > 90%; inhibition at 50 ug/ml [8]: 89%; Activity (Bacillus subtilis [4]): Active; MIC95 (Acinetobacter baylyi): 128 µg/mL; Activity (3T3-L1 [9]): Toxic; MIC95 (Acinetobacter baumannii): 128 µg/mL; Activity (Bacillus subtilis [10]): 10%; Activity (Bacillus subtilis [11]): 20%; MIC [12]: 6 µg/mL; Activity (Staphylococcus aureus [13]): Active; Activity (Staphylococcus aureus [6]): Active; Activity (Bacillus subtilis [14]): Active; Activity [15]: >50%; MIC95 (Enterococcus faecium): 8 µg/mL
COc1cc2c(cc1OC)C[N+](Cc1cn(-c3ccc(COc4ccccc4)cc3)nn1)(Cc1cn(-c3ccc(COc4ccccc4)cc3)nn1)CC2 | > 128 | 32 | 32 | –
COc1cc2c(cc1OC)C[N+](Cc1cn(-c3cc(C(F)(F)F)cc(C(F)(F)F)c3)nn1)(Cc1cn(-c3cc(C(F)(F)F)cc(C(F)(F)F)c3)nn1)CC2 | > 128 | 8 | > 128 | –
COc1cc2c(cc1OC)C[N+](Cc1cn(-c3ccc([N+](=O)[O-])cc3)nn1)(Cc1cn(-c3ccc([N+](=O)[O-])cc3)nn1)CC2 | > 128 | > 128 | > 128 | –
COc1cc2c(cc1OC)C[N+](Cc1cn(-c3ccc(-c4ccccc4)cc3)nn1)(Cc1cn(-c3ccc(-c4ccccc4)cc3)nn1)CC2 | > 128 | 32 | – | –
COc1cc2c(cc1OC)C[N+](Cc1cn(-c3ccccc3)nn1)(Cc1cn(-c3ccccc3)nn1)CC2 | > 128 | > 128 | – | –
COc1cc2c(cc1OC)C[N+](Cc1cn(-c3ccc4ccccc4c3)nn1)(Cc1cn(-c3ccc4ccccc4c3)nn1)CC2 | > 128 | 32 | 32 | –
COc1cc2c(cc1OC)C[N+](Cc1cn(-c3ccc(C(F)(F)F)cc3C(F)(F)F)nn1)(Cc1cn(-c3ccc(C(F)(F)F)cc3C(F)(F)F)nn1)CC2 | > 128 | 32 | 32 | –
COc1cc2c(cc1OC)C[N+](Cc1cn(-c3ccc(C(=O)N(C)C)cc3)nn1)(Cc1cn(-c3ccc(C(=O)N(C)C)cc3)nn1)CC2 | > 128 | > 128 | > 128 | –
COc1cc2c(cc1OC)C(Cc1ccccc1)[N+](Cc1cn(-c3ccc(C(C)(C)C)cc3)nn1)(Cc1cn(-c3ccc(C(C)(C)C)cc3)nn1)CC2 (centres undefined) | > 128 | 2 | – | Activity (3T3-L1 [1]): Toxic
COc1cc2c(cc1OC)C[N+](Cc1cn(-c3ccc(Cl)nc3Cl)nn1)(Cc1cn(-c3ccc(Cl)nc3Cl)nn1)CC2 | > 128 | > 128 | > 128 | –
COc1cc2c(cc1OC)C[N+](Cc1cn(-c3ccc(C#N)cc3)nn1)(Cc1cn(-c3ccc(C#N)cc3)nn1)CC2 | > 128 | > 128 | > 128 | –
COc1ccc(-n2cc(C[N+]3(Cc4cn(-c5ccc(OC)cc5)nn4)CCc4cc(OC)c(OC)cc4C3)nn2)cc1 | > 128 | > 128 | > 128 | –
COc1cc2c(cc1OC)C[N+](Cc1cn(-c3ccc(OCc4ccccc4)cc3F)nn1)(Cc1cn(-c3ccc(OCc4ccccc4)cc3F)nn1)CC2 | > 128 | 4 | 4 | Activity (Bacillus subtilis [4]): Active; Activity (3T3-L1 [9]): Toxic; Activity (Staphylococcus aureus [6]): Active
COc1cc2c(cc1OC)C[N+](Cc1cn(-c3ccoc3)nn1)(Cc1cn(-c3ccoc3)nn1)CC2 | > 128 | > 128 | > 128 | –
